Source: the supplement of paper PMC8671470

Legend:
Settings in all cases: 72 h
[1] = system: SHI-1; experiment: cell viability (% survival relative to DMSO control, bortezomib = 0%); higher = less cytotoxic
Method in brief: (§1)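 Fifteen myeloid leukaemia cell lines were exposed to compounds at 1, 10, 100, 1000 or 10000 nM in 384-well plates for 72 h at 37 °C and 5% CO2. Viability was read by CellTiter-Glo luminescence and normalised, with vehicle as 100% and a 10 µM positive control as 0%. Values are percent survival averaged over duplicates.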

[2] = system: HEL; experiment: as above
Method in brief: as §1

[3] = system: K-562; experiment: as above
Method in brief: as §1

[4] = system: KU-812; experiment: as above
Method in brief: as §1

[5] = system: KG-1; experiment: as above
Method in brief: as §1

[6] = system: NOMO-1; experiment: as above
Method in brief: as §1

[7] = system: KCL-22; experiment: as above
Method in brief: as §1

[8] = system: LAMA-84; experiment: as above
Method in brief: as §1

[9] = system: MV4-11; experiment: as above
Method in brief: as §1

[10] = system: THP-1; experiment: as above
Method in brief: as §1

[11] = system: BV-173; experiment: as above
Method in brief: as §1

[12] = system: ML-2; experiment: as above
Method in brief: as §1

[13] = system: Mono-Mac-6; experiment: as above
Method in brief: as §1

[14] = system: MOLM-13; experiment: as above
Method in brief: as §1

[15] = system: HL-60; experiment: as above
Method in brief: as §1

[16] = system: SHI-1
Method in brief: (§2)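 For the IC50, dose–response curves were fitted with a log-logistic model. The data came from fifteen myeloid leukaemia cell lines grown in RPMI 1640 at densities in the linear growth range and incubated in 384-well plates for 72 h at 37 °C under 5% CO2. Doses were five tenfold steps from 1 to 10,000 nM in duplicate, and luminescent ATP viability was normalised to vehicle and to a positive control at 10 µM before four-parameter fitting.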

[17] = system: HEL
Method in brief: as §2

[18] = system: K-562
Method in brief: as §2

[19] = system: KU-812
Method in brief: as §2

[20] = system: KG-1
Method in brief: as §2

[21] = system: NOMO-1
Method in brief: as §2

[22] = system: KCL-22
Method in brief: as §2

[23] = system: LAMA-84
Method in brief: as §2

[24] = system: MV4-11
Method in brief: as §2

[25] = system: THP-1
Method in brief: as §2

[26] = system: BV-173
Method in brief: as §2

[27] = system: ML-2
Method in brief: as §2

[28] = system: Mono-Mac-6
Method in brief: as §2

[29] = system: MOLM-13
Method in brief: as §2

[30] = system: HL-60
Method in brief: as §2

N#C/C(=C\c1ccc(O)cc1)C(=O)O [alpha-cyano-4-hydroxycinnamic acid]
cell viability [%]
Settings	1 nM	10 nM	100 nM	1000 nM	10000 nM
[1]	99.9	97	95.1	97.3	86.6
[2]	99.3	114	118	113	116
[3]	101	72.2	95.4	103	91
[4]	97.9	114	89.3	87.4	105
[5]	101	96.7	103	99.2	103
[6]	99.5	96.2	106	104	97.3
[7]	98.3	97.6	103	94	92
[8]	96.5	107	96.7	101	101
[9]	100	95.3	95.7	100	101
[10]	95.5	98.3	98.3	87.5	93.2
[11]	96.5	103	84.2	80.1	113
[12]	92.4	101	96.2	95.8	94.5
[13]	98.2	101	103	103	104
[14]	97.7	99.7	104	99.1	85.2
[15]	79.6	78.6	113	99.5	83.1

Settings	IC50 (cell viability) [µM]
[16]	> 10
[17]	> 10
[18]	> 10
[19]	> 10
[20]	> 10
[21]	> 10
[22]	> 10
[23]	> 10
[24]	> 10
[25]	> 10
[26]	> 10
[27]	> 10
[28]	> 10
[29]	> 10
[30]	> 10

C[C@]12C=CC(=O)C=C1CC[C@@H]1[C@@H]2[C@@H](O)C[C@@]2(C)[C@H]1CC[C@]2(O)C(=O)CO [Prednisolone]
cell viability [%]
Settings	1 nM	10 nM	100 nM	1000 nM	10000 nM
[1]	97.7	95.7	97.9	67.6	71.9
[2]	105	114	109	109	105
[3]	112	88.7	104	99	92.6
[4]	87.2	104	99.8	124	112
[5]	115	105	87.7	91.3	71.4
[6]	93.3	103	109	88.7	87.3
[7]	94.2	111	82.5	45.4	43
[8]	94.1	106	92.6	88.5	81.5
[9]	95.2	110	143	142	107
[10]	92	96.4	106	108	102
[11]	82.5	104	18.8	1.67	2.49
[12]	91.5	104	115	114	104
[13]	93.7	90.3	151	157	140
[14]	94.3	96	118	106	109
[15]	93.2	93.5	104	114	116

Settings	IC50 (cell viability) [µM]
[16]	> 10
[17]	> 10
[18]	> 10
[19]	> 10
[20]	> 10
[21]	> 10
[22]	0.524
[23]	> 10
[24]	> 10
[25]	> 10
[26]	0.0525
[27]	> 10
[28]	> 10
[29]	> 10
[30]	> 10

O=c1c(-c2ccc(O)cc2)coc2cc(O[C@@H]3O[C@H](CO)[C@@H](O)[C@H](O)[C@H]3O)ccc12 [Daidzin]
cell viability [%]
Settings	1 nM	10 nM	100 nM	1000 nM	10000 nM
[1]	93.7	106	108	107	103
[2]	93	93.7	107	105	102
[3]	92.1	98.9	98.5	111	106
[4]	90.9	93.6	100	99.5	87.5
[5]	99	96.6	100	97.6	98.6
[6]	93.4	99.7	99.4	101	103
[7]	88.6	98.9	103	109	111
[8]	102	91	96.8	99.2	97.9
[9]	91.6	84	106	133	98.8
[10]	97.8	98.5	97.5	106	95.4
[11]	94	87.4	92.4	125	91.8
[12]	103	90.1	95.8	112	97.8
[13]	90.8	88.2	94.6	107	83.2
[14]	83.9	107	105	99.8	99.3
[15]	107	99.6	100	93.9	92.7

Settings	IC50 (cell viability) [µM]
[16]	> 10
[17]	> 10
[18]	> 10
[19]	> 10
[20]	> 10
[21]	> 10
[22]	> 10
[23]	> 10
[24]	> 10
[25]	> 10
[26]	> 10
[27]	> 10
[28]	> 10
[29]	> 10
[30]	> 10

CCCCCN(C)CCC(O)(P(=O)(O)O)P(=O)(O)O [Ibandronate]
cell viability [%]
Settings	1 nM	10 nM	100 nM	1000 nM	10000 nM
[1]	108	108	103	98	107
[2]	107	105	109	95.5	114
[3]	113	92	81.9	102	101
[4]	88.2	90.9	89.9	110	105
[5]	103	108	96.5	115	111
[6]	99.6	99.3	94.4	109	112
[7]	107	105	95.1	99.8	112
[8]	104	98.3	100	106	103
[9]	95	90.5	104	86.6	116
[10]	94.7	102	103	113	115
[11]	94.6	96	94.4	120	122
[12]	94	110	97.2	114	112
[13]	93.1	98.3	90	103	115
[14]	84.4	110	111	100	117
[15]	92.4	111	103	90.5	142

Settings	IC50 (cell viability) [µM]
[16]	> 10
[17]	> 10
[18]	> 10
[19]	> 10
[20]	> 10
[21]	> 10
[22]	> 10
[23]	> 10
[24]	> 10
[25]	> 10
[26]	> 10
[27]	> 10
[28]	> 10
[29]	> 10
[30]	> 10

N#Cc1ccc(N(Cc2ccc(Br)cc2)n2cnnc2)cc1 [YM511]
cell viability [%]
Settings	1 nM	10 nM	100 nM	1000 nM	10000 nM
[1]	117	103	95.7	103	102
[2]	113	104	97.7	118	104
[3]	107	104	97	115	99.3
[4]	95.9	99.6	89.3	102	92.7
[5]	99.3	105	90.2	118	92.1
[6]	103	104	98.4	104	96.2
[7]	111	97.9	106	102	99.6
[8]	106	100	93.4	101	103
[9]	98.9	93.6	115	106	98.9
[10]	99.3	103	93.4	105	91.9
[11]	92	95.3	101	107	100
[12]	105	108	106	107	98.5
[13]	110	102	97	106	93.9
[14]	131	99.5	91.6	105	94.5
[15]	104	76.2	102	117	101

Settings	IC50 (cell viability) [µM]
[16]	> 10
[17]	> 10
[18]	> 10
[19]	> 10
[20]	> 10
[21]	> 10
[22]	> 10
[23]	> 10
[24]	> 10
[25]	> 10
[26]	> 10
[27]	> 10
[28]	> 10
[29]	> 10
[30]	> 10
